In patent US9072775B2, “Fluorescent emulsions for optical imaging” (priority 2007, dated 2015):

Columns and labels:
[1] = Quantum yield of fluorescence relative to a reference standard; assay type: physicochemical; details: In solution in MeOH; reference Nile Blue perchlorate in ethanol
Protocol: The quantum yield of fluorescence (Φ) is expressed by the following equation: (Φ)=(number of photons emitted)/(number of photons absorbed).
(§1) It is common practice to determine a quantum yield relative to that of a reference standard, by the techniques known to those skilled in the art. The quantum yield of this formulation was calculated by comparison with a reference standard sample (Nile Blue perchlorate in ethanol, sold by Invitrogen) having a known quantum yield value equal to 0.27. The same measurements (carried out using a Varian spectrophotometer, model Cary 300 and a Perkin Elmer spectrofluorimeter, model LS 50) and calculations were carried out for a solution of DiD fluorophore in methanol (MeOH).

[2] = Absorption and emission spectra; assay type: physicochemical; details: In solution in MeOH
Protocol: as §1

[3] = Fluorescence lifetime from time-resolved fluorescence decay; assay type: physicochemical; details: pulsed excitation 740 nm
Protocol: The fluorescence decays of the fluorophore free in solution in methanol or encapsulated in the lipid nanoparticles of oil-in-water emulsion type, in suspension in PBS (10 mM, pH 7.3), were measured on a measuring system using a neodymium-vanadate, continuous-wave laser [Millennia Pro, Spectra-Physics, USA], (532 nm, 5 W)-pumped sapphire-titanium laser [Tsunami, Spectra-Physics, USA] (80 MHz, 100 femtoseconds), tunable to a wavelength of 700 nm to 1000 nm. Depending on the operating mode of this device, the laser is injected into a multimode optical fiber, used as excitatory fiber for the sample to be studied. A second (detection) optical fiber collects the fluorescence emitted or the laser scattering via a filtering system. The signal is measured by means of a photomultiplier tube [Hamamatsu, Japan] coupled to a TCSPC counting board [Becker&Hickel, Germany]. The latter is controlled by means of a sampled part (4%) of the laser signal (pulse train) via a rapid photodiode (PD) [Becker&Hickel, Germany] before injection into the optical fiber.
The measurements were carried out using a pulsed excitation wavelength of 740 nm. The fluorescence intensity (in arbitrary units) was measured in order to plot curves reflecting the fluorescence decay (fluorescence intensity (arbitrary units) expressed as a function of time (in ps)); curves not represented. […]

[4] = in ethanol; cited from earlier work

`CCCCCCCCCCCCCCCCCCN1C(=CC=CC=CC2=[N+](CCCCCCCCCCCCCCCCCC)c3ccccc3C2(C)C)C(C)(C)c2ccccc21.[O-][Cl+3]([O-])([O-])[O-]` [DiD, 1,1′-dioctadecyl-3,3,3′,3′-tetramethylindodicarbocyanin perchlorate] showed a Quantum yield [1] of 0.29, an Emission [2] of 665 nm and a Max. absorption [2] of 644 nm.

With `CCCCCCCCCCCCCCCCCCN1/C(=C/C=C/C=C/C=C/C2=[N+](CCCCCCCCCCCCCCCCCC)c3ccccc3C2(C)C)C(C)(C)c2ccccc21.[I-]` [DiR, 1,1′-dioctadecyl-3,3,3′,3′-tetramethylindotricarbocyanin iodide] the “Lifetime of the DiR fluorophore in solution in methanol” value [3] was 800 ps.

For `CC[N+](CC)=c1ccc2nc3c(cc(N)c4ccccc43)oc-2c1.[O-][Cl+3]([O-])([O-])[O-]` [Nile Blue perchlorate], the “known quantum yield value of reference standard” value [4] is listed as 0.27.
